Source: US20040229936A1, “Treatment of hepatitis C virus infection with sesquiterpene lactones” (priority 2003, published 2004)

Tests used:
[1] = system: HCV RNA replication in Huh-7 cells containing HCV sub-genomic replicons (Ava.5); test: Inhibition of HCV RNA replication (replicon cells, RT and Q-PCR, normalised to GADPH); details: for EC50: Hepatitis C virus, 24 h, read-out: EC50 value (effective concentration at which HCV RNA replication was inhibited by 50%)
Method: Huh-7 cells containing HCV sub-genomic replicons (Ava.5) were maintained in DMEM supplemented with 10% heat-inactivated FCS in a humidified atmosphere containing 5% of CO2. The medium also contained 1 mg/mL G418 (an aminoglycosidic antibiotic agent obtained from Promega, WI) as a selective pressure for the maintenance of HCV replicon's RNA replication. […] Cells were treated with sesquiterpene lactones and control compounds at various concentrations. Then, cells were harvested after 24 hr of the treatment. Subsequently, total cellular RNA's were extracted and quantified as follows.
Total RNA of cells was extracted using RNeasy Mini Kit (QIAGEN). The concentration of total RNA was measured by absorption at 260 nm. […] RNA was added with RNase-free ddH2O to a final volume of 10.5 μL and denatured for 10 min at 65° C. Reverse transcription (RT) reactions were carried out at 42° C. for 1 hr using Expand-RT (Roche Biochemicals, Mannheim, Germany) in a total volume of 20 μL containing a previously denatured primer-RNA mixture, 1 mM each of deoxynucleotide triphosphates (dNTPs), 50 units reverse transcriptase, and 20 units RNase inhibitor (Promega, Madison, Wis.).
Quantitative PCR (Q-PCR) was carried out by LightCycler-DNA Master using SYBR Green 1 for real-time detection of double-stranded DNA (dsDNA) (Roche Diagnostics GmbH, Mannheim, Germany). The intensity of fluorescence was recorded versus PCR cycle numbers and the relative amounts of HCV RNA were calculated corresponding to the standard curve. The standard curve was derived from five serial dilutions of reference DNA, the corresponding cDNA of HCV RNA, under criteria recommended by the supplier.
The relative copy numbers HCV RNA and a house-keeping gene, glyceraldehyde-3-phosphate dehydrogenase (GADPH), were determined by Q-PCR utilizing the following primer sets:
PCR was performed as followed: (i) denaturing conditions: 95° C., 60 sec; (ii) amplification conditions: ramp to 95° C., 0 sec; 64° C., 10 sec; 72° C., 10 sec. The specificity of an amplification reaction was determined by performing a melting curve analysis with a temperature range from 65° C. to 95° C.
HCV RNA copy numbers were divided by their corresponding GADPH copy numbers in the same sample for normalization. Effect of sesquiterpene lactones on HCV RNA replication was represented by “relative copy number,” which was obtained by comparing HCV RNA copy numbers with sesquiterpene lactones treatment to HCV RNA copy numbers without sesquiterpene lactones treatment. The latter was designated as 100%. All measurements were performed in triplicates to reach statistical significance.

[2] = system: Huh-7 cells containing HCV sub-genomic replicons (Ava.5); test: Inhibition of cell growth (MTS cell viability / cytotoxicity assay); details: Hepatitis C virus, read-out: IC50 value (concentration at which cell growth was inhibited by 50%)
Method: Huh-7 cells containing HCV sub-genomic replicons (Ava.5) were provided by Apath, LLC. […] Cells were maintained in Dulbecco's modified Eagle's medium (DMEM) supplemented with 10% fetal calf serum (FCS) in a humidified atmosphere containing 5% of CO2.
MTS and PMS, both in powder form, were purchased from Sigma or Promega. MTS was dissolved in PBS (2 mg/mL) and PMS (0.38 mg/mL) was dissolved in ddH2O as stock solutions. […] Prior to the assay, a 2 mL MTS/PMS solution containing MTS and PMS (20:1) was added to the cells with 8 mL of phenol red-free DMEM. The cell culture medium was then aspirated off, washed with PBS, and 100 μL of the MTS/PMS mixture was added into each well. After incubation at room temperature for 2 hr, optical densities of each sample were measured at OD490 with a 96-well microtiter plate reader. Data were obtained with six repeats for each treatment.

| Compound | EC50 [1] | further results |
| --- | --- | --- |
| CC1=CCCC2(C)OC2C2OC(=O)C(CSCC(N)C(=O)O)C2CC1 (centres unmarked) [Compound 53, 2-Amino-3-(4,8-dimethyl-13-oxo-3,14-dioxa-tricyclo[9.3.0.02,4]tetradec-7-en-12-ylmethylsulfanyl)-propionic acid] | ≤ 6000 nM |  |
| CC1=CCCC2(C)OC2C2OC(=O)C(CN3CCCC3)C2CC1 (centres unmarked) [Compound 46, 4,8-Dimethyl-12-pyrrolidin-1-ylmethyl-3,14-dioxa-tricyclo[9.3.0.02,4]tetradec-7-en-13-one] | ≤ 3000 nM |  |
| CC1=CCCC2(C)OC2C2OC(=O)C(CN(C)C)C2CC1 (centres unmarked) [Compound 44, 12-Dimethylaminomethyl-4,8-dimethyl-3,14-dioxa-tricyclo[9.3.0.02,4]tetradec-7-en-13-one] | ≤ 3000 nM |  |
| CC1=CCCC2(C)OC2C2OC(=O)C(CN3CCCC3C(=O)O)C2CC1 (centres unmarked) [Compound 50, 1-(4,8-Dimethyl-13-oxo-3,14-dioxa-tricyclo[9.3.0.02,4]tetradec-7-en-12-ylmethyl)-pyrrolidine-2-carboxylic acid] | ≤ 3000 nM | IC50 [2]: 8100 nM |
| CC1=CCCC2(C)OC2C2OC(=O)C(CN3CCCCC3)C2CC1 (centres unmarked) [Compound 47, 4,8-Dimethyl-12-piperidin-1-ylmethyl-3,14-dioxa-tricyclo[9.3.0.02,4]tetradec-7-en-13-one] | ≤ 3000 nM |  |
| IFNα |  | inhibition of HCV RNA replication ([1]; 50 IU/1 mL of IFNα alone): 25%; inhibition of HCV RNA replication ([1]; 100 IU/mL of IFNα alone): 40% |
| CCN(CC)CC1C(=O)OC2C1CCC(C)=CCCC1(C)OC21 (centres unmarked) [Compound 45, 12-Diethylaminomethyl-4,8-dimethyl-3,14-dioxa-tricyclo[9.3.0.02,4]tetradec-7-en-13-one] | ≤ 3000 nM |  |
| CC1=CCCC2(C)OC2C2OC(=O)C(CN3CCCCCC3)C2CC1 (centres unmarked) [Compound 48, 12-Azepan-1-ylmethyl-4,8-dimethyl-3,14-dioxa-tricyclo[9.3.0.02,4]tetradec-7-en-13-one] | ≤ 3000 nM |  |
| CC1=CCCC2(C)OC2C2OC(=O)C(CN3CCOCC3)C2CC1 (centres unmarked) [Compound 49, 4,8-Dimethyl-12-morpholin-4-ylmethyl-3,14-dioxa-tricyclo[9.3.0.02,4]tetradec-7-en-13-one] | ≤ 6000 nM |  |
